From patent US20050203127A1, “2-(Phenyl)-2h-pyrazole-3-carboxylic acid-n-4-(thioxo-heterocyclyl)-phenyl-amide derivatives and corresponding imino-heterocyclyl derivatives and relates compounds for use as inhibitors of the coagulation factors xa and/or viia for treating thromboses” (priority 2002, published 2005)

Legend:
[1] = target: factor Xa (Homo sapiens, UniProt P00742); experiment: Factor Xa inhibition (FXa-IC50); assay type: biochemical
Excerpt: The inhibition of factor Xa by the compounds according to the invention and the measurement of the anticoagulant and antithrombotic activity can be determined by conventional in-vitro or in-vivo methods. A suitable method is described, for example, by J. Hauptmann et al. in Thrombosis and Haemostasis 1990, 63, 220-223.
The inhibition of factor Xa can be measured, for example by the method of T. Hara et al. in Thromb. Haemostas. 1994, 71, 314-319.

[2] = target: TF/FVIIa (Homo sapiens, UniProt P08709); experiment: TF/factor VIIa inhibition (TF/FVIIa-IC50); assay type: biochemical
TF/FVIIa, sequence (P08709 213-466 limits assumed): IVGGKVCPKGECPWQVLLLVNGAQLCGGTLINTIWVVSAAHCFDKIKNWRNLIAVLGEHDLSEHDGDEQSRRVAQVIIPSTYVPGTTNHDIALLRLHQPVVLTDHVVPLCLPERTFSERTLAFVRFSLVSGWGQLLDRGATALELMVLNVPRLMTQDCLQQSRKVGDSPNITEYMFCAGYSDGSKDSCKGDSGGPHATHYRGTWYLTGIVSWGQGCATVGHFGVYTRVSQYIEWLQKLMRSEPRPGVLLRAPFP
TF/FVIIa, sequence (P08709 61-212 limits assumed): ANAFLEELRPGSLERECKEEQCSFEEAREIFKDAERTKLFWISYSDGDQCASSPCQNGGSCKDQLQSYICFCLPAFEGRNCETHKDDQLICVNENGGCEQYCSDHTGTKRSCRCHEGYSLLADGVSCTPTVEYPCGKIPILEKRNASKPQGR
TF/FVIIa, sequence (P13726 33-295 partner): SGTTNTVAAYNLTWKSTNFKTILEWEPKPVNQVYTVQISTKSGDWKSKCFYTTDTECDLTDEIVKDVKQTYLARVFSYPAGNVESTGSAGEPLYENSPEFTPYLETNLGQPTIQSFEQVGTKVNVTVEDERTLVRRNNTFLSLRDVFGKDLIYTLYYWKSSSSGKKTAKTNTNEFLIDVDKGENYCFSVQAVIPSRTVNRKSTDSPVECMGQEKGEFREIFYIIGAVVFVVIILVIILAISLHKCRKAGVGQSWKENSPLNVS
Excerpt: The inhibition of factor VIIa by the compounds according to the invention and the measurement of the anticoagulant and antithrombotic activity can be determined by conventional in-vitro or in-vivo methods. A conventional method for the measurement of the inhibition of factor VIIa is described, for example, by H. F. Ronning et al. in Thrombosis Research 1996, 84, 73-81.

factor Xa, sequence (P00742 235-488 limits assumed): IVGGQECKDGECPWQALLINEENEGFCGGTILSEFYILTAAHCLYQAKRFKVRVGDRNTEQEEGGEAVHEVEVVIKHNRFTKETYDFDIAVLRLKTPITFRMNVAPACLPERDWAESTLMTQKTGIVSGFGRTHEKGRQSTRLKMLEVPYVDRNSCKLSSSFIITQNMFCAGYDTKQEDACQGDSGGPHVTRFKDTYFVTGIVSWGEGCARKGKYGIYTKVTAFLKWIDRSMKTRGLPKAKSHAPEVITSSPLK
factor Xa, sequence (P00742 41-179 limits assumed): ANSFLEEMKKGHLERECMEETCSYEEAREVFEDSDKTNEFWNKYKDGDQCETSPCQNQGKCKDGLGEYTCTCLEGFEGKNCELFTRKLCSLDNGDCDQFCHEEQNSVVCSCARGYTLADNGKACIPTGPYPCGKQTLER

IC50 [1] [nM] | IC50 [2] [nM] | SMILES
9.6 | 23 | N=C1CCCN1c1ccc(NC(=O)c2cc(C(F)(F)F)nn2-c2cccc(CN)c2)cc1 [AA, N-[4-(2-iminopyrrolidin-1-yl)phenyl]-2-(3-aminomethylphenyl)-5-trifluoromethyl-2H-pyrazole-3-carboxamide]
330 | 180 | NC(=O)c1cccc(-n2nc(C(F)(F)F)cc2C(=O)Nc2ccc(N3CCCC3=S)c(Cl)c2)c1 [BB, N-[3-chloro-4-(2-thioxopyrrolidin-1-yl)phenyl]-2-(3-aminocarbonylphenyl)-5-trifluoromethyl-2H-pyrazole-3-carboxamide]
200 | 69 | N#CN=C1NCCN1c1ccc(NC(=O)c2cc(C(F)(F)F)nn2-c2cccc(C(N)=O)c2)cc1 [CA, N-[4-(2-cyanoiminoimidazolidin-1-yl)phenyl]-2-(3-aminocarbonylphenyl)-5-trifluoromethyl-2H-pyrazole-3-carboxamide]
92 | 150 | CCc1nn(-c2ccc(NC(=O)c3cc(C(F)(F)F)nn3-c3cccc(C(N)=O)c3)cc2)c(=N)s1 [CB, N-[4-(2-imino-5-ethyl-3H-1,3,4-thiadiazol-3-yl)phenyl]-2-(3-aminocarbonylphenyl)-5-trifluoromethyl-2H-pyrazole-3-carboxamide]
